Assay results: patent publication US8236793B2, “Diazabicyclic aryl derivatives as cholinergic receptor modulators” (Neurosearch A/S, priority 2004, dated 2012)
Structures can show the parent of a compound that is named as a salt.

Experiments:
[1] = molecular target: T1, α7-subtype of nicotinic receptors (Rattus norvegicus, UniProt Q05941); assay: In vitro inhibition of 3H-α-bungarotoxine binding in rat brain; conditions: rat cerebral cortex homogenate; 3H-α-bungarotoxine 2 nM; 2 hours at 37° C.
T1 construct: Cerebral cortices from male Wistar rats (150-250 g) are homogenised; from tissue; host or cells: rat cerebral cortex membrane homogenate (male Wistar rats)
T1 sequence (Q05941 23-502): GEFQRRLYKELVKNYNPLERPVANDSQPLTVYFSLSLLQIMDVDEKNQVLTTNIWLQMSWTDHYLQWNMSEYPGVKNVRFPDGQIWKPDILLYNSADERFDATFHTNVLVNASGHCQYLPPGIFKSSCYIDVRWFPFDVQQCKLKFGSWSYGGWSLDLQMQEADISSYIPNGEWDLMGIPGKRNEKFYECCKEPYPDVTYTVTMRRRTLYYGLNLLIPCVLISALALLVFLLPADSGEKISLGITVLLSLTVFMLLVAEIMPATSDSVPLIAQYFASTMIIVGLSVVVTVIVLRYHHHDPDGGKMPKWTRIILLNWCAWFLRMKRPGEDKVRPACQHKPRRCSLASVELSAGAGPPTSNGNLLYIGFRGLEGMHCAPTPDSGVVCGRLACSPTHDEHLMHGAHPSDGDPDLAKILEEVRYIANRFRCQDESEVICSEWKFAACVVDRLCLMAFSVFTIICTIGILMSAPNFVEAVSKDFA

Row | SMILES | IC50 [1] | melting point
1 | C(#Cc1ccc(N2CCN3CCC2CC3)nn1)c1cccnc1 [Compound B5, 4-[6-(3-Pyridinlethynyl)-pyridazin-3-yl]-1,4-diaza-bicyclo[3.2.2]nonane] | 0.15 µM | 
2 | c1ccc(Sc2ccc(N3CCN4CCC3CC4)nn2)cc1 [Compound C1, 4-(6-Phenylsulfanyl-pyridazin-3-yl)-1,4-diaza-bicyclo[3.2.2]nonane] | 0.6 µM | 
3 | C(#Cc1ccc(N2CCN3CCC2CC3)nn1)c1ccccc1 [Compound B1, 4-(6-Phenylethynyl-pyridazin-3-yl)-1,4-diaza-bicyclo[3.2.2]nonane] | 0.06 µM | 
4 | Nc1ccc(C#Cc2ccc(N3CCN4CCC3CC4)nn2)cc1 |  | 181.7 to 183.4 °C
5 | C(#Cc1ccc(N2CCN3CCC2CC3)nn1)c1cccnc1 (as salt: fumaric acid salt) [Compound B5, 4-[6-(3-Pyridinlethynyl)-pyridazin-3-yl]-1,4-diaza-bicyclo[3.2.2]nonane] |  | 177.8 to 181.2 °C
6 | CC(=O)Nc1ccc(C(=O)Nc2ccc(N3CCN4CCC3CC4)nc2)cc1 |  | 255 °C (dec.)
7 | CC(=O)Nc1cccc(C(=O)Nc2ccc(N3CCN4CCC3CC4)cc2)c1 |  | 184 to 187 °C
8 | COc1ccc(C#Cc2ccc(N3CCN4CCC3CC4)nn2)cc1 (as salt: fumaric acid salt) [Compound B4, 4-[6-(4-Methoxy-phenylethynyl)-pyridazin-3-yl]-1,4-diaza-bicyclo[3.2.2]nonane] |  | 208 to 209 °C
9 | CC(=O)Nc1cccc(C(=O)Nc2ccc(N3CCN4CCC3CC4)nc2)c1 |  | 60 °C
10 | COc1ccc(C#Cc2ccc(N3CCN4CCC3CC4)nn2)cc1 [Compound B4, 4-[6-(4-Methoxy-phenylethynyl)-pyridazin-3-yl]-1,4-diaza-bicyclo[3.2.2]nonane] | 0.18 µM | 
11 | Fc1cccc(C#Cc2ccc(N3CCN4CCC3CC4)nn2)c1 (as salt: fumaric acid salt) |  | 173.5 to 175 °C
12 | CC(=O)Nc1ccc(C(=O)Nc2ccc(N3CCN4CCC3CC4)cc2)cc1 |  | > 240 °C
